Measurements taken from ChEMBL document CHEMBL5226385, “The Antiangiogenic and Antitumor Effects of Scoparasin B in Non-Small-Cell Lung Cancer” (J Nat Prod, 2023).
Calls of active or inactive are those of the source. The rule behind the calls is not given here.

Columns and labels:
NCI-H1299 [1] = test: Downregulation of VE-Cadherin protein expression in human NCI-H1299 cells at 5 to 15 nM incubated for 24 hrs by western blot analysis; assay type: functional, cell-based; settings: dose 5-15 nM
NCI-H1299 [2] = test: Downregulation of N-Cadherin mRNA expression in human NCI-H1299 cells at 5 to 15 nM incubated for 24 hrs by qPCR analysis; assay type: functional, cell-based; settings: dose 5-15 nM
HBVP [3] = test: Inhibition of PDGFR-beta protein expression in human HBVP cells at 5 to 15 nM incubated for 24 hrs by western blot analysis; assay type: functional, cell-based; settings: dose 5-15 nM
NCI-H1299 [4] = test: […] of E-Cadherin protein expression in human NCI-H1299 cells at 5 to 15 nM incubated for 24 hrs by western blot analysis; assay type: functional, cell-based; settings: dose 5-15 nM
Rattus norvegicus [5] = organism: Rattus norvegicus; test: Ex vivo antiangiogenic activity against Sprague-Dawley rat aorta rings assessed as reduction in microvessel sprouting from aortic rings by measuring reduction in total microvessel lengths measured after 6 days by microscopic analysis; assay type: functional; settings: dose 5-20 nM, time 6.0 day
Mus musculus [6] = test: Inhibition of tumor angiogenesis in BALB/c nude mouse xenografted with human NCI-H1299 cells assessed as reduction in […] cells in tumor at 1.5 mg/kg, ip administered every other day for 20 days by immunohistochemical analysis; assay type: functional, organism-based; settings: time 20.0 day
[7] = Toxicity against BALB/c nude mouse xenografted with human NCI-H1299 cells assessed as morphological changes in spleen at 0.75 to 1.5 mg/kg, ip administered every other day for 20 days by Hematoxylin and eosin staining based inverted microscopic analysis; assay type: organism-based; settings: in vivo, 480 h, dose 0.75-1.5 mg/kg, time 20 day
HMEC-1 [8] = test: Antiangiogenic activity against human HMEC-1 cells assessed as inhibition of capillary tube-like structure formation at 15 nM incubated for 6 hrs by Matrigel based analysis; assay type: functional; parameters: scale not given: the % may be the effect or the level left
[9] = target: Vascular endothelial growth factor receptor 2 (Homo sapiens) (UniProt P35968); test: Inhibition of VEGF-A-mediated VEGFR2 signaling pathway in human HUVEC cells assessed as reduction in mTOR phosphorylation at Ser2448 residue at 5 to 15 nM incubated for 36 hrs by western blot analysis; assay type: cell-based; settings: dose 5-15 nM
NCI-H1299 [10] = test: Inhibition of VEGF-A secretion in human NCI-H1299 cells at 5 to 15 nM incubated for 24 hrs by ELISA; assay type: functional, cell-based; settings: dose 5-15 nM
[11] = target: Vascular endothelial growth factor receptor 2 (Homo sapiens) (UniProt P35968); test: Inhibition of VEGF-A-mediated VEGFR2 signaling pathway in human HUVEC cells assessed as reduction in VEGFR2 phosphorylation at Tyr1175 residue at 5 to 15 nM incubated for 36 hrs by western blot analysis; assay type: cell-based; settings: dose 5-15 nM
[12] = target: Vascular endothelial growth factor receptor 2 (Homo sapiens) (UniProt P35968); test: Inhibition of VEGF-A-mediated VEGFR2 signaling pathway in human HUVEC cells assessed as reduction in FAK phosphorylation at Tyr397 residue at 5 to 15 nM incubated for 36 hrs by western blot analysis; assay type: cell-based; settings: dose 5-15 nM
HBVP [13] = test: Inhibition of PDGF-BB protein expression in human HBVP cells at 5 to 15 nM incubated for 24 hrs by western blot analysis; assay type: functional, cell-based; settings: dose 5-15 nM
Mus musculus [14] = test: Inhibition of tumor angiogenesis in BALB/c nude mouse xenografted with human NCI-H1299 cells assessed as reduction in microvessel density of the tumor at 0.75 to 1.5 mg/kg, ip administered every other day for 20 days by CD31 staining based immunohistochemical analysis; assay type: functional, organism-based; settings: dose 0.75-1.5 mg/kg, time 20.0 day
[15] = Toxicity against BALB/c nude mouse xenografted with human NCI-H1299 cells assessed as morphological changes in lungs at 0.75 to 1.5 mg/kg, ip administered every other day for 20 days by Hematoxylin and eosin staining based inverted microscopic analysis; assay type: organism-based; settings: in vivo, 480 h, dose 0.75-1.5 mg/kg, time 20 day
[16] = target: Vascular endothelial growth factor receptor 2 (Homo sapiens) (UniProt P35968); test: Inhibition of VEGF-A-mediated VEGF-R2 signaling pathway in human NCI-H1299 cells assessed as reduction in VEGF-R2 phosphorylation at Tyr1175 residue at 5 to 15 nM by western blot analysis; assay type: cell-based; settings: dose 5-15 nM
[17] = target: Platelet-derived growth factor receptor beta (Homo sapiens) (UniProt P09619); test: Inhibition of PDGF-BB-mediated PDGFR-beta signaling axis in human HBVP cells assessed as inhibition of PDGFR-beta phosphorylation at Tyr857 residue at 5 to 15 nM incubated for 24 hrs by western blot analysis; assay type: cell-based; settings: dose 5-15 nM
HBVP [18] = test: Inhibition of PDGF-BB mRNA expression in human HBVP cells at 5 to 15 nM incubated for 24 hrs by qPCR analysis; assay type: functional, cell-based; settings: dose 5-15 nM
Rattus norvegicus [19] = organism: Rattus norvegicus; test: Ex vivo antiangiogenic activity against Sprague-Dawley rat aorta rings assessed as reduction in microvessel sprouting from aortic rings by measuring reduction in segment formation measured after 6 days by microscopic analysis; assay type: functional; settings: dose 5-20 nM, time 6.0 day
HUVEC [20] = test: Downregulation of VEGFR2 protein expression in human HUVEC cells at 5 to 15 nM incubated for 36 hrs by western blot analysis; assay type: functional, cell-based; settings: dose 5-15 nM
HUVEC [21] = test: Inhibition of pericyte-mediated angiogenesis in PKH26-labeled human HUVEC cells assessed as reduction in PKH67-labeled HBVP recruitment to newly formed capillary by endothelial cells by measuring reduction in overall vessel coverage for branch points and total tube lengths at 5 to 15 nM pericytes pretreated with compound for 48 hrs followed by incubation with endothelial cells and measured within 3 hrs by Matrigel-based fluorescence analysis; assay type: functional, cell-based; settings: dose 5-15 nM, time 51.0 hrs
HUVEC [22] = test: Downregulation of VEGF-A protein expression in human HUVEC cells at 5 to 15 nM incubated for 36 hrs by western blot analysis; assay type: functional, cell-based; settings: dose 5-15 nM
NCI-H460 = test: Cytotoxicity against human NCI-H460 cells assessed as reduction in cell viability measured after 72 hrs by MTT assay; assay type: functional, cell-based; settings: NCI-H460, 72 h
[23] = target: Vascular endothelial growth factor receptor 2 (Homo sapiens) (UniProt P35968); test: Inhibition of VEGF-A-mediated VEGFR2 signaling pathway in human HMEC-1 cells assessed as reduction in FAK phosphorylation at Tyr397 residue at 5 to 15 nM incubated for 36 hrs by western blot analysis; assay type: cell-based; settings: dose 5-15 nM
NCI-H1299 [24] = test: Antitumor activity against human NCI-H1299 cells xenografted in BALB/c nude mouse assessed as reduction in tumor weight at 0.75 to 1.5 mg/kg, ip administered every other day for 20 days; assay type: functional, organism-based; settings: dose 0.75-1.5 mg/kg, time 20.0 day
[25] = target: Vascular endothelial growth factor receptor 2 (Homo sapiens) (UniProt P35968); test: Inhibition of VEGF-A-mediated VEGFR2 signaling pathway in human HMEC-1 cells assessed as reduction in mTOR phosphorylation at Ser2448 residue at 5 to 15 nM incubated for 36 hrs by western blot analysis; assay type: cell-based; settings: dose 5-15 nM
HMEC-1 [26] = test: Cytotoxicity against human HMEC-1 cells assessed as reduction in cell proliferation upto 25 nM measured after 48 hrs by CCK8 assay; assay type: toxicity, cell-based; settings: hmec-1, 48 h, 0.025 µM
NCI-H1299 [27] = test: Inhibition of vasculogenic-mimicry in human NCI-H1299 cells assessed as inhibition of cell migration at 5 to 15 nM measured after 24 hrs by Transwell migration assay; assay type: functional, cell-based; settings: dose 5-15 nM
NCI-H1299 [28] = test: Downregulation of Snail protein expression in human NCI-H1299 cells at 5 to 15 nM incubated for 24 hrs by western blot analysis; assay type: functional, cell-based; settings: dose 5-15 nM
NCI-H1299 [29] = test: Downregulation of Snail mRNA expression in human NCI-H1299 cells at 5 to 15 nM incubated for 24 hrs by qPCR analysis; assay type: functional, cell-based; settings: dose 5-15 nM
NCI-H1299 [30] = test: Downregulation of VE-Cadherin mRNA expression in human NCI-H1299 cells at 5 to 15 nM incubated for 24 hrs by qPCR analysis; assay type: functional, cell-based; settings: dose 5-15 nM

Sequence of Vascular endothelial growth factor receptor 2 (Homo sapiens) (P35968 whole entry): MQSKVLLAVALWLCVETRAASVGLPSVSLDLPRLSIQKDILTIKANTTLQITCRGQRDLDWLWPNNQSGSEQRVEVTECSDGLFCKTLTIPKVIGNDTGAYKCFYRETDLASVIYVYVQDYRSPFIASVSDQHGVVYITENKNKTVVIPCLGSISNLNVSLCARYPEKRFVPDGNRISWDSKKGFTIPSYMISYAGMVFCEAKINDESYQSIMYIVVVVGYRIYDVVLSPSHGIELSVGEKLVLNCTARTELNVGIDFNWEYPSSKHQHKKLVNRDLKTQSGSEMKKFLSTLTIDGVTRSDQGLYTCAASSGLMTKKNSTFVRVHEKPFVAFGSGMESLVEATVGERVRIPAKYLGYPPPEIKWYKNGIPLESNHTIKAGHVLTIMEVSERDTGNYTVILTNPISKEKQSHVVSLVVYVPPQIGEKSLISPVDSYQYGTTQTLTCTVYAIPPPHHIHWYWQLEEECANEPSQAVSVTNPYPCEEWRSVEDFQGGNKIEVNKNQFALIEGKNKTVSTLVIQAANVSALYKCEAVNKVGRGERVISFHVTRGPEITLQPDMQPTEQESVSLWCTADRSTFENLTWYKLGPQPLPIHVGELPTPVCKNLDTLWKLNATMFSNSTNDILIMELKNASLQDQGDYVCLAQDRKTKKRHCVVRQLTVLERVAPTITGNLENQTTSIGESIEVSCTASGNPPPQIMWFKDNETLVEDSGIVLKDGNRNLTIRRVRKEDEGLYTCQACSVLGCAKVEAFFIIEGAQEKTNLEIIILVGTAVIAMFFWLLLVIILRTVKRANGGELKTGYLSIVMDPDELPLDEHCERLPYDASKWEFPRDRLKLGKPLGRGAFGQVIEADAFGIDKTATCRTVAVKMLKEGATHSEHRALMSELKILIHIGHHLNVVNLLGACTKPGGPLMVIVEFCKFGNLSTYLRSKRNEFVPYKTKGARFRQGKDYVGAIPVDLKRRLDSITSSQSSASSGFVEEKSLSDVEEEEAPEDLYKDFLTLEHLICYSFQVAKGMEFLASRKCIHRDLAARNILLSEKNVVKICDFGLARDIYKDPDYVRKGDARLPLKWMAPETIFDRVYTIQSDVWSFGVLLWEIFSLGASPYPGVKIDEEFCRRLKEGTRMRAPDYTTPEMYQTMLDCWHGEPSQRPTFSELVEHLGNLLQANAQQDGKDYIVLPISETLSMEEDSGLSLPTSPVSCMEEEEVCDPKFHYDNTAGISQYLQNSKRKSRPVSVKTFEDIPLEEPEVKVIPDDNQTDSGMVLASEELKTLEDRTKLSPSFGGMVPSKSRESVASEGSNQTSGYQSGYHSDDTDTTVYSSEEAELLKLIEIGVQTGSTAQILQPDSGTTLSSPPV
Sequence of Platelet-derived growth factor receptor beta (Homo sapiens) (P09619 whole entry): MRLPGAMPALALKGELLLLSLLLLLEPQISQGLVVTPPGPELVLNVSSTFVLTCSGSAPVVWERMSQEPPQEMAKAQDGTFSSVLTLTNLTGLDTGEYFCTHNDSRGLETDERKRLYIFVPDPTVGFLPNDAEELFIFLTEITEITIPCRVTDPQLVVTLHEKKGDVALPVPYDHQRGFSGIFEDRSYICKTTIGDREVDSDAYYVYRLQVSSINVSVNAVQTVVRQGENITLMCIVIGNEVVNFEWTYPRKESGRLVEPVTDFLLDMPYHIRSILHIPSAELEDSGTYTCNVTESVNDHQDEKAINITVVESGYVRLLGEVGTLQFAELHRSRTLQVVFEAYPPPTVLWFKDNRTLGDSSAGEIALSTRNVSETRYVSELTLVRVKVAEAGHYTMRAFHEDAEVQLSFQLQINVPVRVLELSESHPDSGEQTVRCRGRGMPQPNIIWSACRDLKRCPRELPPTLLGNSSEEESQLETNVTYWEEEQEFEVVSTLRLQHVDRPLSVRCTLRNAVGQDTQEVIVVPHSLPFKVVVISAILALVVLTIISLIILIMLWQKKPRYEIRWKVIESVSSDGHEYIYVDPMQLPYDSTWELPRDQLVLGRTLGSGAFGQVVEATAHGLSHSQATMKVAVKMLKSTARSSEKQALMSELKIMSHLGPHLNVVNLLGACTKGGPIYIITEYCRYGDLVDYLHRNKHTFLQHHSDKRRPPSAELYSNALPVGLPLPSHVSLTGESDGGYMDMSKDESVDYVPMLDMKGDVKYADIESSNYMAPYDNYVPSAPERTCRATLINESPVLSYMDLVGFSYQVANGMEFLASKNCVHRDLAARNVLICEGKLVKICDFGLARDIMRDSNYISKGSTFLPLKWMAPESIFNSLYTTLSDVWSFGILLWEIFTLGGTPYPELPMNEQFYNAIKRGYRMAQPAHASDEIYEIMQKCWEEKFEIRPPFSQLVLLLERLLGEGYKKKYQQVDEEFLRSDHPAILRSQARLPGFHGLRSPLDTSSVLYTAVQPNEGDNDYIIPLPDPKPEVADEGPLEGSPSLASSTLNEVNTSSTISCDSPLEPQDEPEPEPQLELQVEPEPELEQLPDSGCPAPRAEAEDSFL

COc1ccc(C[C@@H]2NC(=O)[C@@]34OC(=O)O/C=C/[C@@](C)(O)C(=O)[C@@H](C)C/C=C/[C@H]3[C@H](O)[C@](C)(O)[C@@H](C)[C@@H]24)cc1 [SCOPARASIN B]
inhibition (NCI-H1299 [1]): Active
inhibition (NCI-H1299 [2]): Active
inhibition (HBVP [3]): inactive
inhibition (NCI-H1299 [4]): Active
Activity (Rattus norvegicus [5]): Dose-Dependent Effect
inhibition (Mus musculus [6]): Active
Activity [7]: Non-Toxic
Activity (HMEC-1 [8]): 100%
inhibition [9]: Active
inhibition (NCI-H1299 [10]): Active
inhibition [11]: Active
inhibition [12]: Active
inhibition (HBVP [13]): Active
inhibition (Mus musculus [14]): Active
Activity [15]: Non-Toxic
inhibition [16]: Active
inhibition [17]: Active
inhibition (HBVP [18]): Active
Activity (Rattus norvegicus [19]): Dose-Dependent Effect
inhibition (HUVEC [20]): inactive
inhibition (HUVEC [21]): Active
inhibition (HUVEC [22]): Active
IC50 (NCI-H460): 3.9 µM
inhibition [23]: Active
Activity (NCI-H1299 [24]): Active
inhibition [25]: Active
Activity (HMEC-1 [26]): Non-Toxic
inhibition (NCI-H1299 [27]): Active
inhibition (NCI-H1299 [28]): Active
inhibition (NCI-H1299 [29]): Active
inhibition (NCI-H1299 [30]): Active
